Laboratory results published in patent US8067447B2, “Modulators of glucocorticoid receptor, AP-1, and/or NF-κB activity and use thereof” (Bristol-Myers Squibb Company, priority 2006, dated 2011).

Columns and labels:
[1] = target: T1, human full-length glucocorticoid receptor (Homo sapiens, UniProt P04150); test: Glucocorticoid Receptor Binding Assay (II), fluorescence polarization competitor kit (Fluormone GS1); settings: cell lysate with recombinant human full-length GR, 1 nM Fluormone GS1, FP
T1 construct: a cell lysate containing recombinantly expressed human full-length glucocorticoid receptor; purchased PanVera Co., Madison, Wis; P2816
T1 sequence (P04150 1-777): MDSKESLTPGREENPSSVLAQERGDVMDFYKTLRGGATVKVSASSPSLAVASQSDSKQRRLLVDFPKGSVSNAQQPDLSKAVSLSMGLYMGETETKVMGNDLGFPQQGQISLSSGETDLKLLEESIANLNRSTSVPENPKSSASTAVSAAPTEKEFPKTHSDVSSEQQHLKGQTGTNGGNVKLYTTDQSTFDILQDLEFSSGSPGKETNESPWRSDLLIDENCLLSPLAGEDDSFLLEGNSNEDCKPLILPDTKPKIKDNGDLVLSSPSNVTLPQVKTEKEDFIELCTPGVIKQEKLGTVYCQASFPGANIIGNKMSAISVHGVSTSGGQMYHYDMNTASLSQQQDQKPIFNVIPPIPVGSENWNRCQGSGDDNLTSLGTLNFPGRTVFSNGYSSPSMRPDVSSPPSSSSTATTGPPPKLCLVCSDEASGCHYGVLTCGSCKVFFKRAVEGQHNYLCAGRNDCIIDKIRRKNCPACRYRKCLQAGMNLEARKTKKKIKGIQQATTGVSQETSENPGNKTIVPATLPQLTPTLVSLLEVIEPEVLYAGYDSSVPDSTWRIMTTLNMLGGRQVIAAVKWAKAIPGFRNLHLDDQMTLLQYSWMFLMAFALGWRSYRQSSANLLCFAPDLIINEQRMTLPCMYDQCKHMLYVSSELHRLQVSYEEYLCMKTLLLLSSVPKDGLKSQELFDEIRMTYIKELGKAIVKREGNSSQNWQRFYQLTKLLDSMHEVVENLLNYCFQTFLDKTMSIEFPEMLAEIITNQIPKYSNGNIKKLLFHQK
Protocol: In order to measure the binding of compounds on the glucocorticoid receptor a commercially available kit was used (Glucocorticoid receptor competitor assay kit, PanVera Co., Madison, Wis., P2816). Briefly, a cell lysate containing recombinantly expressed human full-length glucocorticoid receptor was mixed with a fluorescently labeled glucocorticoid (1 nM Fluormone GS1) in the presence or absence of test compound. After one hour at room temperature, the fluorescence polarization (FP) of the samples were measured.

[2] = tested on: AP-1 induced transcriptional activity; test: Cellular Transrepressional Assay (AP-1 luciferase reporter in A549 cells, PMA-activated); type: cell-based; settings: Homo sapiens, A549, 7 h, A549 cells with 7x AP-1 luciferase reporter, 10 ng/ml PMA, read-out: AP-1 (EC50, nM) (Cellular Transrepression Assay)
Method in brief: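 Test molecules spanning 0.1 nM to 40 μM were co-incubated 7 h with 10 ng/ml PMA in A549 cells stably carrying a 7× AP-1-driven luciferase plasmid. Repression, as % reduction of PMA-alone luminescence measured 10 min after reagent addition, was curve-fitted to give EC50s.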

| Ki [1] [nM] | EC50 [2] [nM] | Structure (SMILES) |
| --- | --- | --- |
| 3.1 | 23 | COc1cc(F)ccc1-n1ncc2cc([C@H](c3ccccc3)C(C)(C)C(=O)Nc3nncs3)ccc21 [Example 96, (3S)-3-(1-(4-fluoro-2-methoxyphenyl)-1H-indazol-5-yl)-2,2-dimethyl-3-phenyl-N-(1,3,4-thiadiazol-2-yl)propanamide] |
| 5.5 | > 2500 | CC(C)(C(=O)Nc1nncs1)[C@@H](c1ccccc1)c1ccc2c(cnn2-c2ccc(F)cc2C#N)c1 [Example 97, (3S)-3-(1-(2-cyano-4-fluorophenyl)-1H-indazol-5-yl)-2,2-dimethyl-3-phenyl-N-(1,3,4-thiadiazol-2-yl)propanamide] |
| 1 | 36 | CC(C)(C(=O)Nc1nncs1)C1(c2ccc3c(cnn3-c3ccc(F)cc3)c2)CCCCC1 [Example 101, 2-(1-(1-(4-Fluorophenyl)-1H-indazol-5-yl)cyclohexyl)-2-methyl-N-(1,3,4-thiadiazol-2-yl)propanamide] |
| 2.8 | 12 | CC(C)(C(=O)Nc1nccs1)C1(c2ccc3c(cnn3-c3ccc(F)cc3)c2)CCCCC1 [Example 102, 2-(1-(1-(4-Fluorophenyl)-1H-indazol-5-yl)cyclohexyl)-2-methyl-N-(thiazol-2-yl)propanamide] |
| 1.6 | > 10000 | CC(C)c1cc2c(cnn2-c2ccc(F)cc2)cc1CC(C)(C)C(=O)Nc1nncs1 [Example 104] |
| 5.6 | 1.9 | Cc1cc2c(cnn2-c2ccc(F)cc2)cc1CC(C)(C)C(=O)Nc1nncs1 [Example 105] |
| 1 | 160 | Cc1cc2c(cnn2-c2ccc(F)cc2)cc1CC(C)C(=O)Nc1nncs1 (centres unmarked) [Example 106, 3-(1-(4-Fluorophenyl)-6-methyl-1H-indazol-5-yl)-2-methyl-N-(1,3,4-thiadiazol-2-yl)propanamide] |
| 5.1 | 107 | CC(C)(C(=O)Nc1nccs1)C(C)(C)c1ccc2c(cnn2-c2ccc(F)cc2)c1 [Example 113, 3-(1-(4-Fluorophenyl)-1H-indazol-5-yl)-2,2,3-trimethyl-N-(thiazol-2-yl)butanamide] |
| 11 | > 10000 | CC(C)(CC(=O)Nc1nccs1)c1ccc2c(cnn2-c2ccc(F)cc2)c1 [Example 114, 3-(1-(4-Fluorophenyl)-1H-indazol-5-yl)-3-methyl-N-(thiazol-2-yl)butanamide] |
| 8.3 | 1730 | CC(C)(C(=O)NC1CCCC1O)C(C)(C)c1ccc2c(cnn2-c2ccc(F)cc2)c1 (centres unmarked) [Example 121, 3-(1-(4-fluorophenyl)-1H-indazol-5-yl)-N-(2-hydroxycyclopentyl)-2,2,3-trimethylbutanamide] |
| 2.3 | > 10000 | CC(C)(CC(=O)Nc1nncs1)c1ccc2c(cnn2-c2ccc(F)cc2)c1 [Example 122, 3-(1-(4-fluorophenyl)-1H-indazol-5-yl)-3-methyl-N-(1,3,4-thiadiazol-2-yl)butanamide] |
| 1.1 | 705 | CC(C)(C(=O)Nc1nncs1)C(Cc1ccccc1)c1ccc2c(cnn2-c2ccc(F)cc2)c1 (centres unmarked) [Example 123, 3-(1-(4-fluorophenyl)-1H-indazol-5-yl)-2,2-dimethyl-4-phenyl-N-(1,3,4-thiadiazol-2-yl)butanamide] |
| 9.9 | > 10000 | Cc1ccc(CC(c2ccc3c(cnn3-c3ccc(F)cc3)c2)C(C)(C)C(=O)NC2CCCC2O)cc1 (centres unmarked) [Example 125, 3-(1-(4-fluorophenyl)-1H-indazol-5-yl)-N-(2-hydroxycyclopentyl)-2,2-dimethyl-4-p-tolylbutanamide] |
| 6.8 | > 10000 | Cc1ccc(CC(c2ccc3c(cnn3-c3ccc(F)cc3)c2)C(C)(C)C(=O)Nc2nccs2)cc1 (centres unmarked) [Example 126, 3-(1-(4-fluorophenyl)-1H-indazol-5-yl)-2,2-dimethyl-N-(thiazol-2-yl)-4-p-tolylbutanamide] |
| 3.8 | > 10000 | Cc1ccc(CC(c2ccc3c(cnn3-c3ccc(F)cc3)c2)C(C)(C)C(=O)Nc2nncs2)cc1 (centres unmarked) [Example 127, 3-(1-(4-fluorophenyl)-1H-indazol-5-yl)-2,2-dimethyl-N-(1,3,4-thiadiazol-2-yl)-4-p-tolylbutanamide] |
| 0.68 | 673 | CC(C)(C(=O)NC1CC1)C(Cc1ccccc1)c1ccc2c(cnn2-c2ccc(F)cc2)c1 (centres unmarked) [Example 128, N-cyclopropyl-3-(1-(4-fluorophenyl)-1H-indazol-5-yl)-2,2-dimethyl-4-phenylbutanamide] |
| 0.87 | 106 | CC(C)(C(=O)NC1CCC1)C(Cc1ccccc1)c1ccc2c(cnn2-c2ccc(F)cc2)c1 (centres unmarked) [Example 129, N-cyclobutyl-3-(1-(4-fluorophenyl)-1H-indazol-5-yl)-2,2-dimethyl-4-phenylbutanamide] |
| 7.8 | > 10000 | CC(C)(C(=O)NC1CCOCC1)C(Cc1ccccc1)c1ccc2c(cnn2-c2ccc(F)cc2)c1 (centres unmarked) [Example 132, 3-(1-(4-fluorophenyl)-1H-indazol-5-yl)-2,2-dimethyl-4-phenyl-N-(tetrahydro-2H-pyran-4-yl)butanamide] |
| 153 | > 10000 | CC(C)(C(=O)NC1CCNCC1)C(Cc1ccccc1)c1ccc2c(cnn2-c2ccc(F)cc2)c1 (centres unmarked) [Example 133, 3-(1-(4-fluorophenyl)-1H-indazol-5-yl)-2,2-dimethyl-4-phenyl-N-(piperidin-4-yl)butanamide] |
| 6 | > 10000 | CC(C)(CO)CNC(=O)C(C)(C)C(Cc1ccccc1)c1ccc2c(cnn2-c2ccc(F)cc2)c1 (centres unmarked) [Example 134, 3-(1-(4-fluorophenyl)-1H-indazol-5-yl)-N-(3-hydroxy-2,2-dimethylpropyl)-2,2-dimethyl-4-phenylbutanamide] |
| 0.6 | 40 | CC(C)(C(=O)N[C@@H]1CCC[C@H]1O)[C@@H](c1ccccc1)c1ccc2c(cnn2-c2ccc(F)cc2)c1 [Example 135, (S)-3-(1-(4-fluorophenyl)-1H-indazol-5-yl)-N-(2-hydroxycyclopentyl)-2,2-dimethyl-3-phenylpropanamide] |
| 11 | 833 | Cn1cnc(NC(=O)CC(c2ccccc2)c2ccc3c(cnn3-c3ccc(F)cc3)c2)n1 (centres unmarked) [Example 137, 3-(1-(4-Fluorophenyl)-1H-indazol-5-yl)-N-(1-methyl-1H-1,2,4-triazol-3-yl)-3-phenylpropanamide] |
| 1.9 | 223 | CC(C)(C(=O)Nc1nccs1)C(Cc1ccccc1)c1ccc2c(cnn2-c2ccc(F)cc2)c1 (centres unmarked) [Example 138, 3-(1-(4-Fluorophenyl)-1H-indazol-5-yl)-2,2-dimethyl-4-phenyl-N-(thiazol-2-yl)butanamide] |
| 4.7 | 2500 | CC(C)/C=C(\c1ccc2c(cnn2-c2ccc(F)cc2)c1)C(C)(C)C(=O)Nc1nncs1 [Example 139, (E)-3-(1-(4-Fluorophenyl)-1H-indazol-5-yl)-2,2,5-trimethyl-N-(1,3,4-thiadiazol-2-yl)hex-3-enamide] |
| 1.6 | 4 | CC(C)(C(=O)Nc1nncs1)C(OCc1ccccc1)c1ccc2c(cnn2-c2ccc(F)cc2)c1 (centres unmarked) [Example 140, 3-(Benzyloxy)-3-(1-(4-fluorophenyl)-1H-indazol-5-yl)-2,2-dimethyl-N-(1,3,4-thiadiazol-2-yl)propanamide] |
| 1.1 | 0.55 | CCC(C(=O)Nc1nncs1)C(c1ccccc1)c1ccc2c(cnn2-c2ccc(F)cc2)c1 (centres unmarked) [Example 142, 2-((1-(4-Fluorophenyl)-1H-indazol-5-yl)(phenyl)methyl)-N-(1,3,4-thiadiazol-2-yl)butanamide] |
| 1.7 | 2 | CCCC(C(=O)Nc1nncs1)C(c1ccccc1)c1ccc2c(cnn2-c2ccc(F)cc2)c1 (centres unmarked) [Example 143, 2-((1-(4-fluorophenyl)-1H-indazol-5-yl)(phenyl)methyl)-N-(1,3,4-thiadiazol-2-yl)pentanamide] |
| 2 | 2 | CC(C)C(C(=O)Nc1nncs1)C(c1ccccc1)c1ccc2c(cnn2-c2ccc(F)cc2)c1 (centres unmarked) [Example 144, 2-((1-(4-fluorophenyl)-1H-indazol-5-yl)(phenyl)methyl)-3-methyl-N-(1,3,4-thiadiazol-2-yl)butanamide] |
